Measured values: patent publication US10501421B1, “Substituted benzimidazoles as modulators of Ras signaling” (VANDERBILT UNIVERSITY, priority 2017, dated 2019)
Structures can show the parent of a compound that is named as a salt.

Target: Ras GEF SOS (Son of Sevenless) (Homo sapiens, UniProt Q07889)
Experiment: SOS-mediated nucleotide exchange on Ras (BODIPY-GDP fluorescence)
Assay type: biochemical
Conditions: SOS-mediated exchange of BODIPY-GDP for GTP on Ras
Experimental: Compounds of the present invention were tested for their ability to modify the rate at which Ras exchanges a labeled nucleotide guanosine diphosphate (GDP) analog for guanosine triphosphate (GTP). Briefly, test compounds, then GTP and the Ras GEF SOS (Son of Sevenless) are added to a buffered solution containing Ras protein loaded with BODIPY-GDP. Changes in fluoresence indicating exchange of the labeled GDP for GTP are monitored over time. Raw fluorescence data was fit to a single exponential decay function and derived rates were plotted as mean values. EC50 values were calculated by plotting mean derived rates as a function of compound concentration and fit using a four-parameter dose-response curve. This assay is performed in a method analogous to the assay disclosed in: Burns, M. C.; Sun, Q.; Daniels, R. N.; Camper, D. V.; Kennedy, J. P.; Phan, J.; Olejniczak, E. O.; Lee, T.; Waterson, A. G.; Rossanese, O. W.; Fesik, S. W. “Approach for targeting Ras with small molecules that activate SOS-mediated nucleotide exchange” Proc. Natl. Acad. Sci. 2014; 11(9): 3401-3406. PMCID: PMC3948241.

Chain of Ras GEF SOS (Son of Sevenless) (P01112 1-166 partner limits assumed, one chain of several): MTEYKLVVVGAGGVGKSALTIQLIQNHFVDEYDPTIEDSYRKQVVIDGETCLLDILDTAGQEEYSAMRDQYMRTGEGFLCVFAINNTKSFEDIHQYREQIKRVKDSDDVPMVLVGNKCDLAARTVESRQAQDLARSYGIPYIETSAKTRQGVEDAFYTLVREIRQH

Q: `Clc1ccc(Cn2c(N3CCNCC3)nc3ccccc32)cc1` [Example 11, 1-(4-chlorobenzyl)-2-(piperazin-1-yl)-1H-benzo[d]imidazole trifluoroacetate] was tested. Which EC50 did it give?
A: The EC50 was 1 to 5 µM.

Q: With `Cc1cnc2nc(N3CCNCC3)n(Cc3ccc(F)c(Cl)c3)c2c1` [Example 242, 1-(3-chloro-4-fluorobenzyl)-6-methyl-2-(piperazin-1-yl)-1H-imidazo[4,5-b]pyridine] as the compound, how does the EC50 read?
A: Its EC50 is 1 to 5 µM.

Q: How did the EC50 turn out when `Cc1cc2nc(NCCN3CCOCC3)n(Cc3ccc(F)c(Cl)c3)c2cc1C` [Example 30, 1-(3-chloro-4-fluorobenzyl)-5,6-dimethyl-N-(2-morpholinoethyl)-1H-benzo[d]imidazol-2-amine trifluoroacetate] was run?
A: Its EC50 is 5 to 30 µM.

Q: `Cc1cc2nc(N3CCNCC3)n(Cc3cccc(C(F)(F)F)c3)c2cc1C` [Example 32, 5,6-dimethyl-2-(piperazin-1-yl)-1-(3-(trifluoromethyl)benzyl)-1H-benzo[d]imidazole trifluoroacetate] was tested. Which EC50 did it give?
A: The EC50 was 5 to 30 µM.

Q: How did the EC50 turn out when `Fc1ccc(Cn2c(N3CCNCC3)nc3ccc(C(F)(F)F)cc32)cc1Cl` [Example 71, 1-(3-chloro-4-fluorobenzyl)-2-(piperazin-1-yl)-6-(trifluoromethyl)-1H-benzo[d]imidazole trifluoroacetate] was run?
A: The EC50 was 1 to 5 µM.

Q: For `Cc1cc2nc(-c3ccncc3)n(Cc3cc(F)cc(F)c3)c2cc1C` [Example 53, 1-(3,5-difluorobenzyl)-5,6-dimethyl-2-(pyridin-4-yl)-1H-benzo[d]imidazole], which EC50 is on record?
A: The EC50 was 30 to 100 µM.

Q: Which EC50 does the source give for `Cc1cnc2ncn(Cc3ccc(F)c(Cl)c3)c2c1` [Example 243, 1-(3-chloro-4-fluorobenzyl)-6-methyl-1H-imidazo[4,5-b]pyridine] here?
A: The EC50 was 30 to 100 µM.

Q: With `Clc1ccc(Cn2cnc3ncccc32)cc1` [Example 255, 1-(4-chlorobenzyl)-1H-imidazo[4,5-b]pyridine] as the compound, how does the EC50 read?
A: The EC50 was 30 to 100 µM.

Q: `NCCc1cccc2c1nc(N1CCNCC1)n2Cc1cc(F)cc(F)c1` [Example 99, 2-(1-(3,5-difluorobenzyl)-2-(piperazin-1-yl)-1H-benzo[d]imidazol-4-yl)ethan-1-amine trifluoroacetate] was tested. Which EC50 did it give?
A: The EC50 was 5 to 30 µM.

Q: How did the EC50 turn out when `Cc1cc2nc(N3CCN(C)CC3)n(Cc3ccc(F)c(Cl)c3)c2cc1C` [Example 27, 1-(3-chloro-4-fluorobenzyl)-5,6-dimethyl-2-(4-methylpiperazin-1-yl)-1H-benzo[d]imidazole trifluoroacetate] was run?
A: Its EC50 is 30 to 100 µM.

Q: How did the EC50 turn out when `C=Cc1nc(C)cc2c1nc(N1CCNCC1)n2Cc1ccc(F)c(C)c1` [Example 239, 1-(4-fluoro-3-methylbenzyl)-6-methyl-2-(piperazin-1-yl)-4-vinyl-1H-imidazo[4,5-c]pyridine] was run?
A: The EC50 was 30 to 100 µM.

Q: For `Cc1cc2c(cc1C)N(Cc1cccc(Br)c1)C1=NCCCN12` [Example 215, 10-(3-bromobenzyl)-7,8-dimethyl-2,3,4,10-tetrahydrobenzo[4,5]imidazo[1,2-a]pyrimidine], which EC50 is on record?
A: Its EC50 is 5 to 30 µM.

Q: How did the EC50 turn out when `Cc1cc(CN2CCCCC2)c2ncn(Cc3ccc(F)c(Cl)c3)c2c1` [Example 144, 1-(3-chloro-4-fluorobenzyl)-6-methyl-4-(piperidin-1-ylmethyl)-1H-benzo[d]imidazole trifluoroacetate] was run?
A: Its EC50 is 30 to 100 µM.

Q: For `Fc1ccc(Cn2c(C3CCNCC3)nc3ccccc32)cc1Cl` [Example 55, 1-(3-chloro-4-fluorobenzyl)-2-(piperidin-4-yl)-1H-benzo[d]imidazole trifluoroacetate], which EC50 is on record?
A: The EC50 was 5 to 30 µM.

Q: Which EC50 does the source give for `Cc1cc2nc(N3CCC(N)C3)n(Cc3ccc(F)c(Cl)c3)c2cc1C` (centres unmarked) [Example 289, 1-(1-(3-chloro-4-fluorobenzyl)-5,6-dimethyl-1H-benzo[d]imidazol-2-yl)pyrrolidin-3-amine] here?
A: Its EC50 is 1 to 5 µM.

Q: How did the EC50 turn out when `Cc1cc2nc(NC3CCNCC3)n(Cc3ccc(F)c(Cl)c3)c2cc1C` [Example 269, 1-[(3-chloro-4-fluorophenyl)methyl]-5,6-dimethyl-N-piperidin-4-ylbenzimidazol-2-amine] was run?
A: Its EC50 is 30 to 100 µM.

Q: `NCCc1cccc2c1nc(N1CCNCC1)n2Cc1ccc(C(F)(F)F)cc1` [Example 100, 2-(2-(piperazin-1-yl)-1-(4-(trifluoromethyl)benzyl)-1H-benzo[d]imidazol-4-yl)ethan-1-amine trifluoroacetate] was tested. Which EC50 did it give?
A: The EC50 was 1 to 5 µM.

Q: `Cc1cc2nc(NCCN3CCOCC3)n(Cc3ccc(F)cc3)c2cc1C` [Example 29, 1-(4-fluorobenzyl)-5,6-dimethyl-N-(2-morpholinoethyl)-1H-benzo[d]imidazol-2-amine trifluoroacetate] was tested. Which EC50 did it give?
A: Its EC50 is 30 to 100 µM.

Q: `NCCNc1nc2ccccc2n1Cc1ccc(Cl)cc1` [Example 12, N^1-(1-(4-chlorobenzyl)-1H-benzo[d]imidazol-2-yl)ethane-1,2-diamine trifluoroacetate] was tested. Which EC50 did it give?
A: Its EC50 is 5 to 30 µM.

Q: `Cc1cc2nc(-c3ccncc3)n(Cc3ccc(F)c(Cl)c3)c2cc1C` [Example 54, 1-(3-chloro-4-fluorobenzyl)-5,6-dimethyl-2-(pyridin-4-yl)-1H-benzo[d]imidazole] was tested. Which EC50 did it give?
A: The EC50 was 30 to 100 µM.

Target: T1, Son of Sevenless (SOS) (Homo sapiens, UniProt Q07889)
T1 sequence (Q07889 564-1049 limits assumed): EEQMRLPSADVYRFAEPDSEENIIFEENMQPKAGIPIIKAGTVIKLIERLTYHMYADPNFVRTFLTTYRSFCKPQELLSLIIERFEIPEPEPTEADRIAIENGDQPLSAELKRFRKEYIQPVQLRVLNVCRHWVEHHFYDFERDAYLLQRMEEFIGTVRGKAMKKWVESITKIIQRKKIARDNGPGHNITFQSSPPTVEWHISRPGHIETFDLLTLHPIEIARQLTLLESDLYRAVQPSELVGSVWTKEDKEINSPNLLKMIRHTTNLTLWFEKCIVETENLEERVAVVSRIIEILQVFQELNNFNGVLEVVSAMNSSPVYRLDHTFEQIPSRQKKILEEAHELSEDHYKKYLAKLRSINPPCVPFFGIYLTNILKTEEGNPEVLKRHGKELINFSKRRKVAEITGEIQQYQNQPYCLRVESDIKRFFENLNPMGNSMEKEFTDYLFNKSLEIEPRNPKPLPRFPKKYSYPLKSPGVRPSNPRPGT
Experiment: Binding to SOS, fluorescence polarization anisotropy (FPA) probe displacement
Conditions: displacement of FITC-conjugated probe (Example 285), affinity calculated from IC50
Experimental: Compounds of the present invention were tested for their ability to bind to the Ras guanine exchange factor (GEF) Son of Sevenless (SOS). Binding to SOS was measured using a Fluorescence polarization anisotropy (FPA) assay that assesses the ability of a test compound to displace a fluorescent FITC-conjugated compound (Example 285). Briefly, the labeled probe compound is incubated with SOS in buffer. Changes in anisotropy indicative of displacement of the labeled probe for a test compound are assessed over a dose range of test compound. Data was analyzed by plotting fluorescence anisotropy values as a function of compound concentration. IC50 values were determined using a four-parameter dose-response (variable slope) and binding affinities were calculated from this IC50 value. This assay is performed in a method analogous to the assay disclosed in: Burns, M. C.; Sun, Q.; Daniels, R. N.; Camper, D. V.; Kennedy, J. P.; Phan, J.; Olejniczak, E. O.; Lee, T.; Waterson, A. G.; Rossanese, O. W.; Fesik, S. W. “Approach for targeting Ras with small molecules that activate SOS-mediated nucleotide exchange” Proc. Natl. Acad. Sci. 2014; 11(9): 3401-3406. PMCID: PMC3948241.

Q: Which Ki does the source give for `Cc1cc(O[C@H]2CCNC2)c2nc(N3CCNCC3)n(Cc3cc(C)c(F)c(C)c3)c2c1` [Example 200, (S)-1-(4-fluoro-3,5-dimethylbenzyl)-6-methyl-2-(piperazin-1-yl)-4-(pyrrolidin-3-yloxy)-1H-benzo[d]imidazole] here?
A: The Ki was > 5 µM.

Q: How did the Ki turn out when `COC(=O)c1cnn(CC(C)C)c1-c1cc(C)cc2c1nc(N1CCNCC1)n2Cc1ccc(F)c(Cl)c1` [Example 179, methyl 5-(1-(3-chloro-4-fluorobenzyl)-6-methyl-2-(piperazin-1-yl)-1H-benzo[d]imidazol-4-yl)-1-isobutyl-1H-pyrazole-4-carboxylate] was run?
A: The Ki was 0.5 to 1 µM.

Q: For `Cc1cc(N2CCN(C(C)C)CC2)c2nc(N3CCNCC3)n(Cc3cc(C)c(F)c(C)c3)c2c1` [Example 194, 1-(4-fluoro-3,5-dimethylbenzyl)-4-(4-isopropylpiperazin-1-yl)-6-methyl-2-(piperazin-1-yl)-1H-benzo[d]imidazole trifluoroacetate], which Ki is on record?
A: Its Ki is 0.5 to 1 µM.

Q: `CCCNC(=O)c1cnn(CC(C)C)c1-c1cc(C)cc2c1nc(N1CCNCC1)n2Cc1cc(C)c(F)c(C)c1` [Example 181, 5-(1-(4-fluoro-3,5-dimethylbenzyl)-6-methyl-2-(piperazin-1-yl)-1H-benzo[d]imidazol-4-yl)-1-isobutyl-N-propyl-1H-pyrazole-4-carboxamide trifluoroacetate] was tested. Which Ki did it give?
A: The Ki was 0.5 to 1 µM.

Q: How did the Ki turn out when `N[C@@H](Cc1ccccc1)c1cc(Cl)cc2c1nc(N1CCNCC1)n2Cc1ccc(F)c(Cl)c1` [Example 166, (S)-1-(6-chloro-1-(3-chloro-4-fluorobenzyl)-2-(piperazin-1-yl)-1H-benzo[d]imidazol-4-yl)-2-phenylethan-1-amine trifluoroacetate] was run?
A: The Ki was 0.5 to 1 µM.

Q: For `Cc1cc(OCCNCCO)c2nc(N3CCNCC3)n(Cc3cc(C)c(F)c(C)c3)c2c1` [Example 199, 2-((2-((1-(4-fluoro-3,5-dimethylbenzyl)-6-methyl-2-(piperazin-1-yl)-1H-benzo[d]imidazol-4-yl)oxy)ethyl)amino)ethan-1-ol], which Ki is on record?
A: Its Ki is 0.5 to 1 µM.

Q: Which Ki does the source give for `Cc1cc2nc(N3C[C@@H](C)N[C@@H](C)C3)n(Cc3cc(C)c(F)c(C)c3)c2cc1C` [Example 336, 2-((3S,5R)-3,5-dimethylpiperazin-1-yl)-1-(4-fluoro-3,5-dimethylbenzyl)-5,6-dimethyl-1H-benzo[d]imidazole] here?
A: Its Ki is 1 to 5 µM.

Q: How did the Ki turn out when `Cc1cc2nc(S(=O)(=O)CCN)n(Cc3ccc(F)c(Cl)c3)c2cc1C` [Example 211, 2-((1-(3-chloro-4-fluorobenzyl)-5,6-dimethyl-1H-benzo[d]imidazol-2-yl)sulfonyl)ethan-1-amine trifluoroacetate] was run?
A: The Ki was > 5 µM.

Q: Which Ki does the source give for `Cc1cc(OCC2CCNCC2)c2nc(N3CCNCC3)n(Cc3cc(C)c(F)c(C)c3)c2c1` [Example 202, 1-(4-fluoro-3,5-dimethylbenzyl)-6-methyl-2-(piperazin-1-yl)-4-(piperidin-4-ylmethoxy)-1H-benzo[d]imidazole] here?
A: Its Ki is 0.5 to 1 µM.
